# pIC50: −log10 of the molar value.
# Experiments:
# [1] = target: BTK recombinant protein (Homo sapiens (Human), UniProt Q06187); test: Determination of biochemical BTK (Z'-LYTE kinase assay)
# From the text: Example 2 Determination of Biochemical BTK
# (§1) 1. Reagents and Materials
# • BTK recombinant protein: Invitrogen, Cat #PV3363; • Z′-LYTE® kinase test kit-tyrosine 1 peptide: Invitrogen, Cat #PV3190; • 384-well low-flange black flat-bottomed polystyrene NBS microplate, no lid, no sterilization: Corning, Cat #3575; • 96-well polystyrene conical-bottomed MicroWell™ plate, sealed with a lid: Thermo Scientific™ Nunc™, Cat #277143; • Envision multi-mode plate reader: PerkinElmer; • Mixmate® shaker: Eppendorf; • TS-2102 shaking incubator: TENSUC; 2. Methods
# Z′-LYTE® biochemical assay employs a fluorescence resonance energy transfer (FRET)-based, coupled-enzyme format and is based on the differential sensitivity of phosphorylated and non-phosphorylated peptides to proteolytic cleavage. Both ends of the short peptide substrate are labeled with two fluorescent groups to form a FRET paired combination. In the primary reaction (the Kinase Reaction), the kinase transfers the γ-phosphate of ATP to a single […] residue on the short peptide substrate. In the secondary reaction (the development reaction), the non-phosphorylated short peptides were recognized and cleaved by a site-specific protease (the development reagent). Phosphorylated short peptides can resist such cleavage. Cleavage of short peptides can disrupt the donor (such as coumarin) and receptor fluorophores (fluorescein) on the short peptides, while the phosphorylated short peptides can maintain FRET. The calculation method of the ratio is as follows, and the ratio of the respective emission signals generated by the donor fluorophores emitted (after excitation at 400 nm) to the receptors is calculated. Emission signal ratio=emitted light by coumarin (445 nm)/emitted light by fluorescein (520 nm). If the FRET short peptide is phosphorylated (such as no kinase inhibitor), the emitted light ratio will remain in a lower level. If the FRET short peptide is non-phosphorylated (such as kinase inhibitor), the emitted light ratio will be in a higher level. In this way, the inhibitory effects of different compound inhibitors on BTK kinase activity would be distinguished.
# The experiment were carried out according to the instructions of the Z′-LYTE® kinase test kit-tyrosine 1 peptide. Reagent preparation: 1.33× kinase buffer: 5× kinase buffer was diluted with water to 1.33× kinase buffer; an enzyme solution: the kinase was dissolved in 1.33× kinase buffer with the final working concentration being 3.32 nM; a short peptide solution: a short peptide stock solution (1 mM dissolved in DMSO) was dissolved in 1.33× kinase buffer with the final working concentration being 2 μM; Z′-LYTE Tyr01 phosphorylated short peptide solution, 0.6 μl of stock solution (1 mM dissolved in DMSO) was dissolved in 149.4 μl of 1.33× kinase buffer; an ATP solution: an ATP stock solution (10 mM aqueous solution) was dissolved in 1.33× kinase buffer with the final working concentration being 32 μM; a color-developing solution: color-developing solution B was dissolved in color-developing buffer with the final working concentration being 1× color-developing solution; 4× compound preparation: the compound was diluted in 3-fold gradient concentration to finally obtain 4% DMSO aqueous solution containing different concentrations of the compound, with the final working concentration being 3000, 1000, 333.33, 111.11, 37.04, 12.35, 4.12, 1.37 nM, 8 concentration points in total.
# Specific steps of the experiment: In the experiment, there were three control groups, each with 8 replicate wells, which were C1 100% inhibition group (no ATP), C2 0% inhibition group (with ATP), and C3 100% phosphorylation group, respectively. 2.5 μl of serially diluted compound was added to each well of a 384-well plate, with double replicate wells, and 4% DMSO solution was added to wells C1, C2, and C3. […]
# [2] = target: phosphorylated BTK in Ramos cells (Homo sapiens (Human), UniProt Q06187); test: Determination of phosphorylated BTK in Ramos cells (BTK phospho-Y223 HTRF); type: cell-based
# Sequence of phosphorylated BTK in Ramos cells (Q06187 whole entry): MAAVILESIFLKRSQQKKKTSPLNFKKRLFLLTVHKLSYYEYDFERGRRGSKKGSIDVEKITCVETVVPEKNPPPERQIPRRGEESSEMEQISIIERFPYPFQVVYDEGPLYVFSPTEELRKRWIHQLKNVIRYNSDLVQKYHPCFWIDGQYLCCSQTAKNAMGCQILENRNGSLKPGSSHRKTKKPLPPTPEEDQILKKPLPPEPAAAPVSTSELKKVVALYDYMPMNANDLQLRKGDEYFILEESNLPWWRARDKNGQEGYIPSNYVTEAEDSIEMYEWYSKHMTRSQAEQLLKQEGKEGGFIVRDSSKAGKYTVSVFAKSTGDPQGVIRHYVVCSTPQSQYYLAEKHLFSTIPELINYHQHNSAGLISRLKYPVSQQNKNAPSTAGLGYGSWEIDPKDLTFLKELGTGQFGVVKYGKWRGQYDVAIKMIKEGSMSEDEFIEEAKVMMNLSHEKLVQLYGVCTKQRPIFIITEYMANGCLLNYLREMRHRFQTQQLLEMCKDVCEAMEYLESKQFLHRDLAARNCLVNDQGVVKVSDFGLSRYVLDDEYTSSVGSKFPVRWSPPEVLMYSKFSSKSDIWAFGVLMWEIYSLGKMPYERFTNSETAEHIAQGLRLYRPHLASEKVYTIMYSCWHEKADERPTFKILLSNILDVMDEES
# Experimental: Determination of Phosphorylated BTK in Ramos Cells
# as §1
# • Ramos cells: Ramos cells were purchased from American Standard Biological Collection Center ATCC Cell Bank, PRMI 1640 medium containing L-glutamine, 1.5 g/L of sodium bicarbonate, 2.383 g/L of HEPES solution, 0.11 g/L of sodium pyruvate and 4.5 g/L of glucose was used, added 10% fetal bovine serum FBS, and placed in a 5% C02, 37° C. cell incubator for normal culture; • PRMI 1640 medium: GIBCO, Cat #A10491-01; • Fetal bovine serum (FBS): GIBCO, Cat #100100-147; • Hank's balanced salt solution (HBSS): GIBCO, Cat #14025-092; • Immunoglobulin M (IgM): Jackson Immuno, Cat #109-006-129; • 3% hydrogen peroxide (3% H2O2): Sigma, Cat #88597-100 ML-F; • Phosphorylated BTK HTRF detection kit (BTK phospho-Y223 HTRF kit): Cisbio, Cat #63ADK017PEH; • Microwell plate reader: Envision, Perkin Elmer; • 384-well plate CulturPlate™384: Perkin Elmer, Cat #6007680 • 96-well plate: Corning, Cat #3799. 2. Methods
# Ramos cells were starved in PRMI 1640 medium with 1% FBS for 2 hours. The starved Ramos cells were diluted with Hank's balanced salt solution to 5.0×10^6 cells/ml, seeded in a 96-well plate with 20 μL/well (1.0×10^5 cells/well), and cultured in a 5% CO2, 37° C. cell incubator. […]
# The 384 well plate incubated overnight in the constant temperature incubator was taken out to detect the luminescence signal using the Envision microwell plate reader at the […]. The reading value at 665 nm/615 nm of each well multiplied by 104 was used as the signal value of each well.
# The average signal value of the wells supplemented with the mixed solution of human immunoglobulin M (final concentration was 10 μg/mL) and hydrogen peroxide (final concentration was 3.3 mM) without the test compound was regarded as the high value, and the average signal value of the wells without immunoglobulin M stimulation and without the test compound was regarded as the low value. According to the signal value in each well, the inhibition ratio (%) of each concentration of compounds was calculated, and the 205 model in XL-Fit 5.3 software (ID Business Solutions Limited) was used to obtain an IC50 value. […]
# [3] = system: B cell activation in mice whole blood (BTK target); test: In vivo inhibitory effect on BTK target (anti-IgD antibody-induced B cell activation in mice whole blood); design: species or system mouse
# Experimental: Objects: B cells in mice whole blood were induced and activated by the anti-IgD antibody, and the inhibitory effect of the compound of the present invention on B cell activation in vivo was studied, so as to determine the inhibitory effect of the compound of the present invention on the BTK target in vivo.
# Methods: C57BL/6 mice (female, 18-20 g, purchased from Shanghai Lingchang Biotechnology Co., Ltd.) were grouped according to Table 2.
# The animals of each group were administered, then were placed in CO2 for anesthesia at designated time points, blood samples were taken from rats via retro-orbital bleeding, and heparin was used for anticoagulation; 90 μL of whole blood was taken from mice of each group, and added to a 96 well culture plate, and anti-mouse IgD antibody (BIO-RAD, Cat #MCA4693) was added to each well to a final concentration of 0.01 μg/μL (respectively for the each drug-treated group and anti-IgD antibody-inducted vehicle group); in addition, 90 μL of whole blood of mice in the vehicle group was taken and added to the 96-well culture plate, and PBS (phosphate buffer, GIBCO, Cat #C20012500BT) was added to each well to a final concentration of 0.01 μg/μL (namely, the vehicle control group); Each group was mixed well and incubated in a 37° C./5% CO2 incubator for 4 hours. In addition, the blood of mice in the drug-treated group was centrifuged to separate plasma for blood concentration analysis.
# B cell activation ratio=percentage of CD69^+CD19^+ double positive B cells/percentage of CD19^+ single positive B cells
# All data are represented by mean±standard error. For the comparison between each drug-treated group and the anti-IgD antibody-induced vehicle group, p value was calculated by Graphpad Prism using one-way ANOVA analysis of variance and Dunnett's test, and for the comparison between each drug-treated group, p value was calculated by using unpaired t test.
# Sequence of BTK recombinant protein (Q06187 whole entry): as above
pIC50 [1],pIC50 [2],Compound,"B cell activation ratio (the proportion of activated B cells to total B cells) ([3]; 5 mg/kg oral single, 16 h)","Inhibition ratio (%) ([3]; 5 mg/kg oral single, 16 h)","inhibition ratio on B cell activation ([3]; 5 mg/kg, after 16 hours of administration, anti-IgD antibody-induced, mice whole blood) [%]"
7.92,8.10,Cn1cc(-c2ccnc(-n3ccn4c5c(cc4c3=O)CC(C)(C)C5)c2CO)cc(Nc2ccc(N3CCN4CCOCC4C3)cn2)c1=O (racemic) [Compound 232],,,
,,Cn1cc(-c2ccnc(-n3ccn4c5c(c(F)c4c3=O)CCCC5)c2CO)cc(Nc2cc3n(n2)CCOC3)c1=O [compound 176],13.9,48,48

# Source: US12070457B2, “Substituted pyridines, pyridazines, pyrimidines, and 1,2,3-triazines as bruton's tyrosine kinase inhibitors” (HUTCHISON MEDIPHARMA LIMITED, priority 2020, dated 2024)
